In US11844801B2, “Oral compositions of MK2 pathway inhibitor for treatment of immune conditions” (priority 2020, dated 2023):
Values joined by “and” are separate entries in the source; they are usually repeats but may differ in a detail not shown here. Equal values may be shown once.

Tests used:
IL-8 = experiment: Ex vivo LPS-stimulated IL-8 in blood of dosed healthy subjects, PK/PD inhibitory Emax model; parameters: species or system human
Protocol: Blood samples of 10 mL were collected for PD analysis. For the SAD cohorts, blood was collected before dosing and 1, 12, and 24 hours after dosing. For the MAD cohorts, on day 1 blood was collected before the morning dose and 4 and 12 hours after the morning dose (prior to the evening dose); on day 7, blood was collected before the morning dose and 4 and 12 hours after the morning dose.
Additional details of the assays for analyzing p-HSP27 and cytokines are included in the Supplementary Information.
Pharmacodynamics. PD data analysis was conducted using Microsoft Excel 2010 (Microsoft, Redmond, WA), Meso Scale Discovery Workbench® analysis software (Rockville, MD), and Phoenix WinNonlin, version 8.2.
Sample Preparation for Cytokine Analysis. For each sample, 180 μL aliquots were transferred into 7 wells of a round bottom 96 well tissue culture polystyrene low evaporation plate. […] No outer wells on the plates were used and all wells surrounding the samples contained 200 μL of phosphate buffered saline.
DMSO was added to all wells in groups ‘A’ and ‘C’ to a final concentration of 0.1% ([…] of a 2% DMSO solution in DMEM containing 10% FBS and 1% penicillin/streptomycin/glutamine). […] Samples were mixed gently for 30 seconds on a plate shaker using pin tools, then placed in an incubator at 37° C./5% CO2 for 1 hour.
Samples in groups ‘A’ and ‘B’ were stimulated with lipopolysaccharide at a final concentration of 100 ng/mL. A stock solution of lipopolysaccharide at 1 mg/mL in DMEM containing 10% FBS and 1% penicillin/streptomycin was diluted to […] in DMEM containing 10% FBS and 1% penicillin/streptomycin, and […] of this working solution was added per well of blood for all samples in groups ‘A’ and ‘B’. […] of DMEM containing 10% FBS only was added per well of blood for all samples in group ‘C’ (unstimulated samples). Samples were mixed gently for 30 seconds on a plate shaker using pin tools, then placed in an incubator at 37° C./5% CO2 for 5 hours.
Following the incubation, the plates were removed from the incubator and sealed with adhesive clear plate seals. The plates were then centrifuged for 10 minutes at 1800×g at room temperature. […] of plasma was removed from each well and transferred to a 96-well polypropylene round bottom master plate, which was then sealed and frozen at −80° C. until all samples from the respective cohort were generated. Once all samples from a given cohort were generated, the samples were analyzed for cytokine (TNF-α, IL-1b, IL-6, and IL-8) production using Meso Scale Discovery Technology.
Analysis of Cytokine Levels Using Meso Scale Discovery Technology. All lipopolysaccharide plasma samples were analyzed for cytokine production with a V-Plex Human Proinflammatory Panel II (4-Plex) Kit from Meso Scale Discovery (Rockville, MD). The master plates containing the plasma samples were thawed on ice, and a daughter plate consisting of a 25-fold dilution of each plasma sample (3 μL of plasma plus 72 μL of Meso Scale Discovery Diluent 2) was generated for each master plate. The diluted plasma samples from the daughter plates were used in the cytokine analysis. The Meso Scale Discovery 4-plex plates were washed 3 times with 150 μL/well of wash buffer (1×KPL phosphate buffered saline with Tween 20 from SeraCare [Milford, MA]). Prepared calibrators and the samples from the daughter plates were added to the washed Meso Scale Discovery 4-plex plates at 50 μL/well. The 4-plex plates were sealed and shaken overnight at 4° C.
After the overnight incubation, the samples were removed by decanting. The 4-plex plates were then washed 3 times with 150 μL/well of wash buffer. […]

[1] = Phase 2a RA study: Hand-Wrist MRI RAMRIS and CARLOS; assay type: in vivo, human; conditions: for Carlos Cartilage Loss, mean / RAMRIS Erosion Score, mean / RAMRIS Osteitis Score, mean / RAMRIS Synovitis Score, mean / Carlos Cartilage Loss, change from baseline, mean / RAMRIS Erosion Score, change from baseline, mean / RAMRIS Osteitis Score, change from baseline, mean / RAMRIS Synovitis Score, change from baseline, mean: n = 15
IL-6 [2] = experiment: LPS stimulated IL-6 production in human whole blood; assay type: cell-based
Protocol: Compounds were serially diluted in 100% DMSO (Sigma-Aldrich, D2650) followed by a 50× dilution into DMEM/10% FBS (Gibco, 11965/26140). Vehicle consisted of DMSO at a final assay concentration of 0.1%. Pin tools (V&P Scientific, Inc., VP246) were placed in the wells and the plate was placed at 37° C. with 5% CO2, with gently shaking for five minutes, then pin tools were removed and saved. […] Pin tools were placed in the wells in the same orientation as the previous step and gently shook for five minutes at 37° C. with 5% CO2, then removed. […] The plasma was harvested and assayed for TNF-α, IL-1β, and IL-6 using Meso Scale Discovery Technology V-plex human cytokine kits according to the kit protocol. The kit plates were read using an MSD Sector S 6000 instrument. Calculations to establish cytokine calibration curves and to determine analyte concentrations in the samples were carried out using the MSD DISCOVERY WORKBENCH® analysis software.

IL-6 [3] = experiment: Poly(I:C) stimulated IL-6 production in human whole blood; assay type: cell-based; conditions: 100 ug/mL, 24 hr
Protocol: Human whole blood assays were performed as described above with the exceptions listed below. […] Compounds were serially diluted in 100% DMSO (Sigma-Aldrich, D2650) followed by a 25× dilution into DMEM/10% FBS (Gibco, 11965/26140). After the one-hour incubation with the compounds or vehicle, 20 μL of poly(I:C) (InvivoGen, HMW, tlrl-pic), in DPBS (Gibco, 14190-136) was added for a final concentration of 100 μg/mL to each well except for the no stimulus wells. After twenty-four hours of incubation with poly(I:C), plasma was harvested and assayed for IP10, IFNγ, IL-6, IL-8 and TNF-α using Meso Scale Discovery Technology V-plex human cytokine kits according to the kit protocol.

TNF-α, IL-6, and IL-8 = experiment: Ex vivo IL-1β-induced TNF-α, IL-6 and IL-8 in blood of dosed healthy subjects; conditions: human
Protocol: Methods: Safety, pharmacokinetics (PK) and pharmacodynamics (PD) were assessed in two cohorts of subjects in a randomized, observer-blind, placebo-controlled study in male and female healthy subjects aged 18-55 (n=77). The study consisted of twenty (20) subjects enrolled into 2 cohorts. […] The final dose was administered in the morning on Day 7. Blood samples were obtained Day 1—before dosing, Day 1—4 hours after dosing and Day 1—12 hours after dosing and Day 7—before dosing, Day 7—4 hours after dosing, day 7—12 hour after dosing and Day 7—24 hours after dosing for each subject.

[4] = most severe hand, baseline, 50 mg BID arm
[5] = most severe hand, week 12, 50 mg BID
[6] = other hand, baseline, 50 mg BID arm

**Q.** With Cc1cnc(-c2ccnc(C(C)(C)O)n2)cc1-n1c(C)cc(OCc2ncc(F)cc2F)c(Cl)c1=O (single isomer, unassigned) [ATI-450, 3-chloro-4-((3,5-difluoropyridin-2-yl)methoxy)-2′-(2-(2-hydroxypropan-2-yl)pyrimidin-4-yl)-5′,6-dimethyl-2H-[1,4′-bipyridin]-2-one] as the molecule, how does the “Cmax (Multiple of IC80)” value (IL-8; 50 mg BID, day 7) read?
**A.** 5.6x

**Q.** And the “Ctrough (Multiple of IC80)” value (IL-8; 50 mg BID, day 7)?
**A.** 2.3x

**Q.** And the IC80 (IL-8; Homo sapiens, calculated from IC50, combined SAD and MAD data, read-out: IC80, plasma concentration at 80% of maximal inhibition)?
**A.** 0.0388 µg/mL

**Q.** What about the IC50 (IL-8; Homo sapiens, inhibitory Emax model, combined SAD and MAD data, read-out: IC50, plasma concentration at half maximal inhibition) of the same molecule?
**A.** 0.0097 µg/mL

**Q.** And the “IC80, plasma concentration at 80% of maximal inhibition” value (IL-8; calculated from IC50, combined SAD and MAD data)?
**A.** 0.0388 µg/mL

**Q.** And the “Imax, maximum percent inhibition” value (IL-8; inhibitory Emax model)?
**A.** 57% and 57.1%

**Q.** And the “joint destruction and synovitis by MRI” value ([1]; 50 mg BID plus MTX, 12 weeks)?
**A.** prevents the progression of joint destruction and provides significant improvement in synovitis

**Q.** And the “Carlos Cartilage Loss, mean” value [1, 4]?
**A.** 7.6

**Q.** And the “RAMRIS Erosion Score, mean” value [1, 4]?
**A.** 13.27

**Q.** What about the “RAMRIS Osteitis Score, mean” value [1, 4] of the same molecule?
**A.** 2.93

**Q.** What about the “RAMRIS Synovitis Score, mean” value [1, 4] of the same molecule?
**A.** 6.1

**Q.** What about the “Carlos Cartilage Loss, change from baseline, mean” value [1, 5] of the same molecule?
**A.** 0.03

**Q.** What about the “Carlos Cartilage Loss, mean” value [1, 5] of the same molecule?
**A.** 7.63

**Q.** What about the “RAMRIS Erosion Score, change from baseline, mean” value [1, 5] of the same molecule?
**A.** 0.63

**Q.** What about the “RAMRIS Erosion Score, mean” value [1, 5] of the same molecule?
**A.** 13.9

**Q.** What about the “RAMRIS Osteitis Score, change from baseline, mean” value [1, 5] of the same molecule?
**A.** 0.9

**Q.** What about the “RAMRIS Osteitis Score, mean” value [1, 5] of the same molecule?
**A.** 3.83

**Q.** What about the “RAMRIS Synovitis Score, change from baseline, mean” value [1, 5] of the same molecule?
**A.** −0.17

**Q.** And the “RAMRIS Synovitis Score, mean” value [1, 5]?
**A.** 5.93

**Q.** What about the “Carlos Cartilage Loss, mean” value [1, 6] of the same molecule?
**A.** 7.45

**Q.** And the “RAMRIS Erosion Score, mean” value [1, 6]?
**A.** 13.3

**Q.** And the “RAMRIS Osteitis Score, mean” value [1, 6]?
**A.** 2.4

**Q.** What about the “RAMRIS Synovitis Score, mean” value [1, 6] of the same molecule?
**A.** 4.07

**Q.** What about the “Carlos Cartilage Loss, change from baseline, mean” value ([1]; other hand, week 12, 50 mg BID) of the same molecule?
**A.** 0

**Q.** What about the “Carlos Cartilage Loss, mean” value ([1]; other hand, week 12, 50 mg BID) of the same molecule?
**A.** 7.45

**Q.** And the “RAMRIS Erosion Score, change from baseline, mean” value ([1]; other hand, week 12, 50 mg BID)?
**A.** −0.27

**Q.** What about the “RAMRIS Erosion Score, mean” value ([1]; other hand, week 12, 50 mg BID) of the same molecule?
**A.** 13.03

**Q.** What about the “RAMRIS Osteitis Score, change from baseline, mean” value ([1]; other hand, week 12, 50 mg BID) of the same molecule?
**A.** 1

**Q.** And the “RAMRIS Osteitis Score, mean” value ([1]; other hand, week 12, 50 mg BID)?
**A.** 3.4

**Q.** What about the “RAMRIS Synovitis Score, change from baseline, mean” value ([1]; other hand, week 12, 50 mg BID) of the same molecule?
**A.** 0.33

**Q.** What about the “RAMRIS Synovitis Score, mean” value ([1]; other hand, week 12, 50 mg BID) of the same molecule?
**A.** 4.4

**Q.** What about the IC50 (IL-6 [2]; Human Whole Blood, LPS, 100 ng/mL, 4 or 24 hr, read-out: IC50, IL-6) of the same molecule?
**A.** 135 ± 97 nM

**Q.** And the IC50 (IL-6 [2]; human whole blood, LPS 100 ng/mL, read-out: IC50, LPS-stimulated IL-6)?
**A.** 10 to 100 nM

**Q.** What about the IC50 (IL-6 [3]) of the same molecule?
**A.** 13.2 ± 12.8 nM

**Q.** What about the “ex vivo IL-1β-induced TNF-α, IL-6, and IL-8” value (TNF-α, IL-6, and IL-8) of the same molecule?
**A.** potently inhibits
